ChEMBL document CHEMBL4428116, “Synthesis, molecular modeling and SAR study of novel pyrazolo[5,1-f][1,6]naphthyridines as CB2 receptor antagonists/inverse agonists” (Bioorg Med Chem, 2016)
Activity calls are given as the source filed them. The calls are words filed in the database; no cut-off is given here.

What was measured:
Homo sapiens = species on record: Homo sapiens; experiment: Selectivity ratio of Ki for human CB1 receptor expressed in CHO cell membrane to Ki for human CB2 receptor expressed in CHO cell membrane; type: cell-based
Cannabinoid receptor 2 [1] = target: T1, Cannabinoid receptor 2 (Homo sapiens, UniProt P34972); experiment: Inverse agonist activity at human CB2 receptor expressed in CHO cells assessed as increase in forskolin-stimulated cAMP production at 1 to 10 uM by immunoassay; type: functional, cell-based
Cannabinoid receptor 2 [2] = target: T1, Cannabinoid receptor 2; experiment: Displacement of [3H]CP-55,940 from human CB2 receptor expressed in CHO cell membrane after 60 mins by scintillation counting method; type: cell membranes
Cannabinoid receptor 2 [3] = target: T1, Cannabinoid receptor 2; experiment: Antagonist activity at human CB2 receptor expressed in CHO cells assessed as inhibition of WIN 55,212-2-induced reduction in forskolin-stimulated cAMP accumulation by Schild plot analysis; type: functional, cell-based
Cannabinoid receptor 1 = Cannabinoid receptor 1 (Homo sapiens, UniProt P21554); experiment: Displacement of [3H]CP-55,940 from human CB1 receptor expressed in CHO cell membrane after 90 mins by scintillation counting method; type: cell membranes
Cannabinoid receptor 2 [4] = target: T1, Cannabinoid receptor 2; experiment: Antagonist activity at human CB2 receptor expressed in CHO cells assessed as inhibition of WIN 55,212-2-induced reduction in forskolin-stimulated cAMP accumulation at 0.1 to 10 uM by immunoassay; type: functional, cell-based
Cannabinoid receptor 2 [5] = target: T1, Cannabinoid receptor 2; experiment: Inverse agonist activity at human CB2 receptor expressed in CHO cells assessed as increase in forskolin-stimulated cAMP production at 0.1 uM by immunoassay; type: functional, cell-based
Cannabinoid receptor 2 [6] = target: T1, Cannabinoid receptor 2; experiment: Antagonist activity at human CB2 receptor expressed in CHO cells assessed as inhibition of WIN 55,212-2-induced reduction in forskolin-stimulated cAMP accumulation by immunoassay; type: functional, cell-based
Mus musculus = species on record: Mus musculus; experiment: Selectivity ratio of Ki for CB1 receptor in CD-1 mouse cerebellum membrane to Ki for CB2 receptor in CD-1 mouse spleen homogenate; type: cell membranes

Sequence of Cannabinoid receptor 1 (P21554 whole entry): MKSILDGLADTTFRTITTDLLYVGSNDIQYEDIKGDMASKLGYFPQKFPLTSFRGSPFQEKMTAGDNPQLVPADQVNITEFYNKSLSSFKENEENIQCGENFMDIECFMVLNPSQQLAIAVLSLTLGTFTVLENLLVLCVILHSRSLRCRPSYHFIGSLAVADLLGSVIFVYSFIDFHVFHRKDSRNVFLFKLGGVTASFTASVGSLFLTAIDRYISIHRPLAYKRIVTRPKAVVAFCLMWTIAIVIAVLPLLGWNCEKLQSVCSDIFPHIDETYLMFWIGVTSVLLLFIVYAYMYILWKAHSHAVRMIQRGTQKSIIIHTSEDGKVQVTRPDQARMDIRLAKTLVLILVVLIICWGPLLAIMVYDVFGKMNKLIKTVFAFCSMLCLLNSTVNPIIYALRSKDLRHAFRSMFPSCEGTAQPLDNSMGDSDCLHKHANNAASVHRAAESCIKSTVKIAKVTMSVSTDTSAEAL
T1 sequence (P34972 whole entry): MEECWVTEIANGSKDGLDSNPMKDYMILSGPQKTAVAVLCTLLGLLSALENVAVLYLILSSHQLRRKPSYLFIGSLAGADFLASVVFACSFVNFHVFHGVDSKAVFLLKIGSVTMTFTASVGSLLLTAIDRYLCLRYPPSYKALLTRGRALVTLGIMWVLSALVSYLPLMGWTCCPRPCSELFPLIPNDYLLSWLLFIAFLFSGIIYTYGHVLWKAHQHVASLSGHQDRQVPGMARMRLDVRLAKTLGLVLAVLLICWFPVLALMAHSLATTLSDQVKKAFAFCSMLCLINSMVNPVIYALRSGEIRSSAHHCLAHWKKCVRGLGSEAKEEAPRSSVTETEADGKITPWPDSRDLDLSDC

Row | Structure (SMILES) | Ratio Ki (Homo sapiens) | Activity (Cannabinoid receptor 2 [1]) | Ki (Cannabinoid receptor 2 [2]) [nM] | Kb (Cannabinoid receptor 2 [3]) [nM] | Ki (Cannabinoid receptor 1) [nM] | inhibition (Cannabinoid receptor 2 [4]) | Activity (Cannabinoid receptor 2 [5]) | inhibition (Cannabinoid receptor 2 [6]) | Ratio Ki (Mus musculus)
1 | CC1(C)C2CC[C@@H](CNC(=O)c3cc4c5cccnc5cc(-c5ccc(Cl)cc5Cl)n4n3)C1C2 (stereo partly specified) | > 149 | Active | 67 | 650 | > 10000 | Active |  |  | 
2 | Cc1ccc(-c2cc3ncccc3c3cc(C(=O)N[C@H]4C5(C)CCC(C5)C4(C)C)nn23)cc1 (stereo partly specified) | 2.7 |  | 800 |  | 2200 |  |  |  | 
3 | Cc1ccc(-c2cc3ncccc3c3cc(C(=O)NC4CCCCC4)nn23)cc1 | > 4.7 |  | 2130 |  | > 10000 |  |  |  | 
4 | Cc1ccc(-c2cc3ncccc3c3cc(C(=O)NC45CC6CC(CC(C6)C4)C5)nn23)cc1 | 173 |  | 33 | 316 | 5700 |  | Active | Dose-dependent effect | 
5 | Cc1ccc(-c2cc3ncccc3c3cc(C(=O)NC4C5CC(C[C@@H]4C)C5(C)C)nn23)cc1 (stereo partly specified) | > 42 |  | 240 |  | > 10000 |  |  |  | 
6 | CC1=C(C(=O)c2cccc3ccccc23)C2C=CC=C3OC[C@@H](CN4CCOCC4)N1C32 (stereo partly specified) | 5.2 |  |  |  | 13 |  |  |  | 
7 | Cc1ccc(-c2cc3ncccc3c3cc(C(=O)N[C@@H]4C[C@H](C)CC[C@H]4C(C)C)nn23)cc1 | 12 |  | 280 |  | 3300 |  |  |  | 
8 | Cc1ccc(-c2cc3ncccc3c3cc(C(=O)N[C@H]4CC5CCC4(C)C5(C)C)nn23)cc1 (stereo partly specified) | 132 | Active | 53 | 505 | 7000 | Active |  |  | 
9 | Cc1ccc(-c2cc3ncccc3c3cc(C(=O)NC4C5CC6CC(C5)CC4C6)nn23)cc1 (stereo unspecified) | > 75 |  | 133 |  | > 10000 |  |  |  | 
10 | Cc1ccc2c(c1)Cc1c(C(=O)NN3CCCCC3)nn(-c3ccc(Cl)cc3Cl)c1-2 |  |  |  |  |  |  |  |  | 9810
11 | Cc1ccc(-c2cc3ncccc3c3cc(C(=O)NC[C@@H]4CCC5CC4C5(C)C)nn23)cc1 (stereo partly specified) | > 83 |  | 120 |  | > 10000 |  |  |  | 
12 | Cc1ccc(-c2cc3ncccc3c3cc(C(=O)NN4CCCCC4)nn23)cc1 |  |  | > 1000 |  | > 10000 |  |  |  | 
